Measurements published in patent publication US20240299354A1, “COMPOSITIONS AND METHODS FOR TREATING CANCER” (The Regents of the University of Michigan, priority 2021, published 2024).

Tests used:
[1] = target: T1, SLC6A14 (Homo sapiens, UniProt Q9UN76); conditions: reference 41; cited from earlier work
T1 sequence (Q9UN76 1-642): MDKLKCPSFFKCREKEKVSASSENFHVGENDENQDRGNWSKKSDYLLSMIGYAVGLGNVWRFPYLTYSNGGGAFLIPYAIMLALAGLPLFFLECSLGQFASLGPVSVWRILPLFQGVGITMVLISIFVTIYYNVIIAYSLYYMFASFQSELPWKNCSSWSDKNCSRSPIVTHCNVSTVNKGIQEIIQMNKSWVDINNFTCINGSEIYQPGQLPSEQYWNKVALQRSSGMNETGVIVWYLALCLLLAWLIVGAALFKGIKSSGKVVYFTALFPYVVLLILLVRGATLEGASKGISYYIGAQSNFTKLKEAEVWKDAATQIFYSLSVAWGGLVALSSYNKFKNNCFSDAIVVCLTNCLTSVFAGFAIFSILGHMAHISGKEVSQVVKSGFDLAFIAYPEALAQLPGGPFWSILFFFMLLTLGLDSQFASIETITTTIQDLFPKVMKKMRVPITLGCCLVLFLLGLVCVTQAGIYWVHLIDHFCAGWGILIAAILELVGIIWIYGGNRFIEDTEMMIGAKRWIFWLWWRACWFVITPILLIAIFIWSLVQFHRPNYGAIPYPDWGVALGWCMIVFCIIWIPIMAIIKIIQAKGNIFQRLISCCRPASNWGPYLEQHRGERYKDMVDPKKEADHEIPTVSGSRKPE

[2] = test system: 4T1 tumors; test: tumor stiffness in vivo by atomic force microscopy; parameters: species or system mouse; conditions: FIG. 5f
Description: (§1) For the therapeutic experiments, 2*10^4 4T1 cells were inoculated into the fourth right mammary fat pad of BALB/cJ mice. On day 3, mice were treated (i.p.) with 200 μg of anti-PD-L1 (Bio X Cell) every 3 days, and/or with 250 μg of 4-HAP (i.p., 278564, Sigma) every other day, and/or α-MT (2 mg/mL, M8377, Sigma) in drinking water. Tumor diameters were measured using calipers.
AFM was used to measure tumor tissue stiffness in vivo. MFP-3D AFM (Asylum Research, Santa Barbara, CA) combined with a Nikon Ti inverted optical microscope (Nikon, Melville, NY) was used to optically align the probe to the cells. The probes used in this study were MCST-AUHW (Bruker, Camarillo, CA) with a nominal spring constant of 0.03 N/m. […] To eliminate the confounding effects of neighboring cells on cytoskeleton arrangement and morphology, single cells were measured.
For in vivo tumor cell stiffness detection, fresh tumor tissues were excised and prepared immediately as frozen slices. […] The deflection sensitivity was determined in fluid using glass substrates as an infinitely stiff reference material. AFM at room temperature involved recording up to 6×6 point grids (36 force-displacement curves per map) was recorded. […] Force curves were analyzed using the Oliver and Pharr method. Tumor stiffness was determined and expressed as log 10 (pascal) per site. At least 24 sites per tumor tissue were analyzed.

[3] = test system: 4T1 tumors; test: therapeutic experiments in 4T1 tumor bearing BALB/cJ mice (tumor volume, tumor weight); format: in vivo, mouse; conditions: anti-PD-L1 and combination experiment
Description: Six to eight week-old female BALB/cJ mice were purchased from The Jackson Laboratory. The work was approved by the Institutional Animal Care and Use Committee at the University of Michigan. Slc6a14^−/− and Slc6a14^+/+ 4T1 tumor cells were inoculated into the fourth right mammary fat pad of BALB/cJ mice. Tumor size was measured every three days using calipers fitted with Vernier scale. Tumor volume (TV) was calculated using the formula: TV=0.5×L×W^2. In some cases, single cell suspensions were made from spleen and tumor tissues for immune phenotype and function analysis.
as §1

[4] = test system: 4T1 cells; test: 4T1 cell stiffness in vitro, Optical Tweezers Microscopy; format: cell-based, mouse; conditions: FIG. 8c
Description: OTM was established to measure tumor cell stiffness. A modular OTM (Thorlabs—OKBT) was adapted for axial cell indentation and force measurement. Briefly, a collimated laser beam (YLM-5-IPG Photonics—Yb fiber laser 1064 nm) was focused through a 100× objective (Nikon, N.A.=1.25, oil immersion) to produce a stable optical trap for 3 μm diameter silica microbeads (Bangs Laboratories) dispersed in the medium. During data acquisition, the cells were maintained at 37° C. by an integrated temperature controller unit (RS Components). The sample was imaged through the trapping objective and a tube lens by a CMOS camera (Thorlabs—DCC1240C). A microbead probe was individually trapped and positioned above the cell nucleus area of a selected cell using a piezoelectric NanoMax 3-axis flexure stage (Thorlabs). The position of the microbead in the trap was tracked by back focal plane interferometry method using the laser light scattered by the trapped bead. The trap height was in the range 3-6 μm from the cover-slip. The trap stiffness was calculated using the equipartition theorem and the power spectrum density methods considering the stiffness variations due to spherical aberrations and neighborhood of the cover-slip. […] Tumor cell stiffness was determined and expressed as […] per site. At least 15 cells per condition were analyzed.

[5] = test system: 4T1 tumors; test: Myh9 and Mylk expression in 4T1 tumors of treated mice (real-time PCR, immunoblots); parameters: species or system mouse; conditions: in vivo, α-MT in drinking water
Description: as §1
Total RNA was extracted using TRIzol™ Reagent (ThermoFisher Scientific, USA). RNA was quantified by using NanoDrop spectrophotometer. Reverse transcription of the total cellular RNA was carried out using oligo (dT) primers and M-MLV reverse transcriptase (ThermoFisher Scientific, USA). RT-PCR primers are listed (Table 6). PCR was performed using QuantStudio 3 Real-time PCR system (Appliedbiosystems, Thermo Fisher Scientific, USA).
Cell lysates were prepared in RIPA buffer (Thermo Fisher Scientific, USA). The protein concentrations of cell lysates were determined by BCA protein assay kit (Thermo Scientific, USA). Equivalent amounts of total cellular protein were separated by SDS PAGE and transferred to PVDF membranes. The proteins were detected with specific antibodies (Table 7) and developed using ChemiDoc™ Imaging System (Bio-Rad, USA).

[6] = test system: T47D cells; test: perforin and granzyme B-induced tumor cell death; format: cell-based, human; conditions: FOXO1 knocked down T47D cells, FIG. 4h
Description: Tumor cells were exposed to hypoxia for 24 hours, or the indicated conditions. Then, tumor cells were co-incubated with perform (APB317Hu01, Cloud-Clone) and granzyme B (2906-SE-010, R&D system) for 10 minutes. PI (10 μg/ml) was added into the culture. PI^+ cells were measured by flow cytometry.

[7] = test system: tumor cells; test: tumor receptivity to CTL-killing in vitro; format: cell-based; conditions: FIG. 9g as printed
[8] = test system: tumor cells; conditions: reference 46; cited from earlier work

For `CC(N)(Cc1c[nH]c2ccccc12)C(=O)O` (racemic) [α-MT, α-methyl-DL-tryptophan], which “inhibition of SLC6A14” value [1] is on record?
Its value is “functionally inhibits”.

And the “4T1 tumor cell stiffness in vivo” value [2]?
The value was “increased”.

What about the “4T1 tumor progression / tumor growth” value ([3]; α-MT, tumor volumes and weight, FIG. 5i-j) of the same compound?
Its value is “partially and similarly slowed down”.

What about the 4T1 cell stiffness [4] of the same compound?
Its 4T1 cell stiffness is “enhanced”.

And the “levels of Myh9 and Mylk proteins in 4T1 tumors” value ([5]; immunoblots, FIG. 5e)?
Its value is “reduced levels”.

And the “levels of Myh9 and Mylk transcripts in 4T1 tumors” value ([5]; real-time PCR, FIG. 5d)?
The value was “reduced levels”.

Which “4T1 tumor progression / tumor growth” value ([3]; 4-HAP, tumor weights and volume, FIG. 5k-l) does the source give for `CC(=O)c1ccc(O)cc1` [4-HAP, 4′-Hydroxyacetophenone] here?
Its value is “partially slowed down”.

And the “perforin and granzyme B-induced T47D cell death” value [6]?
Its value is “rescued”.

And the “tumor receptivity to CTL-killing” value [7]?
The value was “promote”.

What about the “stiffening of tumor cells” value [8] of the same compound?
Its value is “can stiffen tumor cells”.
